Laboratory results taken from paper PMC8466554, “Heteroaryl-Ethylenes as New Lead Compounds in the Fight against High Priority Bacterial Strains” (Antibiotics, 2021).
Converted amounts (≈) assume the structure as drawn. “And” between values parts separate entries of the source, which are not always exact repeats. Equal entries are not always repeated. Where two headings read alike, the source gives them in different places.

Experiments:
[1] = system: S.aureus Mu50-VISA; assay: MIC and MBC microtiter plate assay; format: cell-based, Staphylococcus aureus
[2] = system: S.aureus USA300-CAMRSA; assay: MIC and MBC microtiter plate assay; format: cell-based, Staphylococcus aureus
[3] = system: S.aureus ATCC29213-MSSA; assay: MIC and MBC microtiter plate assay; format: cell-based, Staphylococcus aureus
[4] = system: S.aureus ATCC12598-MSSA; assay: MIC and MBC microtiter plate assay, also with different inocula; format: cell-based, Staphylococcus aureus
[5] = system: E. faecalis ATCC51299-VRE; assay: as above; format: cell-based
[6] = system: E. faecalis ATCC29212-VSE; assay: MIC and MBC microtiter plate assay; format: cell-based
[7] = system: A. baumannii ATCC17978; assay: MIC and MBC microtiter plate assay, also with different inocula; format: cell-based, Acinetobacter baumannii
[8] = system: E. coli ATCC25922; assay: as above; format: cell-based, Escherichia coli
[9] = system: P. aeruginosa ATCC27853; assay: MIC microtiter plate assay; format: cell-based, Pseudomonas aeruginosa
[10] = system: K. pneumoniae ATCC700603; assay: MIC microtiter plate assay; format: cell-based, Klebsiella pneumoniae
[11] = system: K. pneumoniae ATCC BAA-2814; assay: MIC microtiter plate assay; format: cell-based, Klebsiella pneumoniae; details: K. pneumoniae ATCC BAA-2814 (MDR strain)
[12] = system: Gram-positive control strains; assay: MIC and MBC, summary over Gram-positive control strains; format: cell-based, S. aureus and Enterococcus spp.; details: for comparison between MIC and MBC values: Gram-positive control strains
[13] = system: Gram-positive and Gram-negative ATCC strains; assay: MIC and MBC, summary over Gram-positive and Gram-negative strains; format: cell-based; details: bactericidal effect defined as MBC/MIC ≤ 4
[14] = system: CaCo-2 cells; assay: MTT cytotoxicity assay; format: cell-based, human; details: 24 h of incubation relative to untreated controls
Description: To evaluate the biological activity of the PBn series, compounds were screened for toxicity against the colon-rectal cancer cell line CaCo-2 (ATCC HTB-37). These human cancer cells were treated with solutions of the compounds at decreasing concentrations, starting from 100 μM up to 0.01 μM. The reference compound used for these assays was 5-Fluorouracil (5-Fu), a pyrimidine analogue belonging to the family of antimetabolite. […] Briefly, human colorectal adenocarcinoma cells (CaCo-2 HTB-37^TM Colorectal Adenocarcinoma Human, American Type Culture Collection, Manassas, VA, USA) were grown in Dulbecco’s MEM (DMEM) with 10% heat-inactivated fetal bovine serum, 2 mM L-Alanyl-L-Glutamine, penicillin-streptomycin (50 units-50 μg for mL) and incubated at 37 °C in a humidified atmosphere of 5% CO2, 95% air. CaCo-2 cells were plated in 96 well pates and incubated at 37 °C. The PBn series compounds and 5-FU were prepared as a 1 mM solution in 10 mL with 0.01% DMSO. Then, 24 h after plating, cells were treated with 20 μL of each solution. Untreated cells were used as controls. […] The results were read on a multiwell scanning spectrophotometer (AF2200 plate reader, Eppendorf, Milan, Italy), using a wavelength of 569 nm.

[15] = system: S. aureus ATCC29213; set-up: method as in earlier work; details: library for the QSAR model, ref [1]; cited from earlier work
[16] = S. aureus ATCC12598, inoculum 1.00101 (1 × 10^1 CFU/mL)
[17] = S. aureus ATCC12598, inoculum 1.00102 (1 × 10^2 CFU/mL)
[18] = S. aureus ATCC12598, inoculum 1.00103 (1 × 10^3 CFU/mL)
[19] = S. aureus ATCC12598, inoculum 1.00104 (1 × 10^4 CFU/mL)
[20] = S. aureus ATCC12598, inoculum 1.00105 (1 × 10^5 CFU/mL, standard)
[21] = S. aureus ATCC12598, inoculum 1.00106 (1 × 10^6 CFU/mL)
[22] = S. aureus ATCC12598, inoculum 1.00107 (1 × 10^7 CFU/mL)
[23] = S.aureus ATCC12598-MSSA, value in brackets
[24] = E. faecalis ATCC51299-VRE, value in brackets
[25] = E. faecalis ATCC51299, inoculum 1.00101 (1 × 10^1 CFU/mL)
[26] = E. faecalis ATCC51299, inoculum 1.00102 (1 × 10^2 CFU/mL)
[27] = E. faecalis ATCC51299, inoculum 1.00103 (1 × 10^3 CFU/mL)
[28] = E. faecalis ATCC51299, inoculum 1.00104 (1 × 10^4 CFU/mL)
[29] = E. faecalis ATCC51299, inoculum 1.00105 (1 × 10^5 CFU/mL, standard)
[30] = E. faecalis ATCC51299, inoculum 1.00106 (1 × 10^6 CFU/mL)
[31] = E. faecalis ATCC51299, inoculum 1.00107 (1 × 10^7 CFU/mL)
[32] = A. baumannii ATCC17978, value in brackets

CN(C)c1ccc(/C=C/c2cccc(/C=C/c3ccc(N(C)C)cc3)[n+]2C)cc1.[I-] [PB4] showed an MBC [1] of 2 µg/mL, an MIC [1] of 0.25 µg/mL and an MBC ([1]; value in brackets) of 3.91 µM. For the same compound, the MIC ([1]; value in brackets) was 0.49 µM, the MBC [2] was 2 µg/mL and the MIC [2] was 0.25 µg/mL. For the same compound, the MBC ([2]; value in brackets) was 3.91 µM, the MIC ([2]; value in brackets) was 0.49 µM and the MBC [3] was 2 µg/mL. For the same compound, the MIC [3] was 0.25 µg/mL, the MBC ([3]; value in brackets) was 3.91 µM and the MIC ([3]; value in brackets) was 0.49 µM. For the same compound, the MIC [4, 16] was < 0.015 mg/L and < 0.03 μM, the MIC [4, 17] was < 0.015 mg/L and < 0.03 μM and the MIC [4, 18] was < 0.03 μM and < 0.015 mg/L. For the same compound, the MIC [4, 19] was 0.03 mg/L and 0.06 μM, the MIC [4, 20] was 0.25 mg/L and 0.49 μM and the MIC [4, 21] was 0.25 mg/L and 0.49 μM. For the same compound, the MIC [4, 22] was 4 mg/L and 7.82 μM, the MBC ([4]; S.aureus ATCC12598-MSSA) was 2 µg/mL and the MIC ([4]; S.aureus ATCC12598-MSSA) was 0.25 mg/L. It also gave an MBC [4, 23] of 3.91 µM, an MIC [4, 23] of 0.49 µM and an MBC ([5]; E. faecalis ATCC51299-VRE) of 4 µg/mL. The MIC ([5]; E. faecalis ATCC51299-VRE) was 0.5 mg/L, the MBC [5, 24] was 7.82 µM and the MIC [5, 24] was 0.98 µM. For the same compound, the MIC [5, 25] was 0.06 mg/L and 0.12 μM, the MIC [5, 26] was 0.25 mg/L and the MIC [5, 27] was 0.12 mg/L. For the same compound, the MIC [5, 28] was 0.12 mg/L and 0.24 μM, the MIC [5, 29] was 0.5 mg/L and 0.98 μM and the MIC [5, 30] was 0.5 mg/L and 0.98 μM. For the same compound, the MIC [5, 31] was 0.5 mg/L and 0.98 μM, the MBC [6] was 4 µg/mL and the MIC [6] was 0.5 µg/mL. For the same compound, the MBC ([6]; value in brackets) was 7.82 µM, the MIC ([6]; value in brackets) was 0.98 µM and the MBC ([7]; A. baumannii ATCC17978) was 0.5 µg/mL. The MIC ([7]; A. baumannii ATCC17978) was 0.25 mg/L, the MIC ([7]; A. baumannii ATCC 17978, inoculum 1.00101 (1 × 10^1 CFU/mL)) was < 0.25 mg/L and < 0.49 μM and the MIC ([7]; A. baumannii ATCC 17978, inoculum 1.00102 (1 × 10^2 CFU/mL)) was < 0.25 mg/L and < 0.49 μM. For the same compound, the MIC ([7]; A. baumannii ATCC 17978, inoculum 1.00103 (1 × 10^3 CFU/mL)) was < 0.49 μM and < 0.25 mg/L, the MIC ([7]; A. baumannii ATCC 17978, inoculum 1.00104 (1 × 10^4 CFU/mL)) was 0.25 mg/L and 0.49 μM and the MIC ([7]; A. baumannii ATCC 17978, inoculum 1.00105 (1 × 10^5 CFU/mL)) was 0.25 mg/L and 0.49 μM. For the same compound, the MIC ([7]; A. baumannii ATCC 17978, inoculum 1.00106 (1 × 10^6 CFU/mL)) was 0.49 µM, the MIC ([7]; A. baumannii ATCC 17978, inoculum 1.00107 (1 × 10^7 CFU/mL)) was 1 mg/L and 1.96 μM and the MBC [7, 32] was 0.98 µM. For the same compound, the MIC [7, 32] was 0.49 µM, the MBC [8] was 4 µg/mL and the MIC [8] was 1 mg/L. The MIC ([8]; inoculum 1.00101 (1 × 10^1 CFU/mL)) was 0.5 mg/L and 0.98 μM, the MIC ([8]; inoculum 1.00102 (1 × 10^2 CFU/mL)) was 0.5 mg/L and 0.98 μM and the MIC ([8]; inoculum 1.00103 (1 × 10^3 CFU/mL)) was 0.5 mg/L and 0.98 μM. The MIC ([8]; inoculum 1.00104 (1 × 10^4 CFU/mL)) was 0.5 mg/L and 0.98 μM, the MIC ([8]; inoculum 1.00105 (1 × 10^5 CFU/mL)) was 1 mg/L and 1.96 μM and the MIC ([8]; inoculum 1.00106 (1 × 10^6 CFU/mL)) was 1 mg/L and 1.96 μM. The MIC ([8]; inoculum 1.00107 (1 × 10^7 CFU/mL)) was 2 mg/L and 3.91 μM, the MBC ([8]; value in brackets) was 7.82 µM and the MIC ([8]; value in brackets) was 1.96 µM. The MIC [9] was 64 µg/mL, the MIC ([9]; value in brackets) was 125.14 µM and the MIC [10] was > 128 µg/mL. For the same compound, the MIC ([10]; value in brackets) was > 250.27 µM, the MIC [11] was 64 µg/mL and the MIC ([11]; value in brackets) was 125.14 µM. The “comparison between MIC and MBC values” [12] was “three values of difference”, the MIC ([12]; over the Gram-positive control strains (S. aureus and Enterococcus spp.)) was ≤ 16 µg/mL and the MBC/MIC [13] was ≤ 4. The IC50 [14] was 0.319 µM and 0.32 µM.
CCCCN(CCCC)c1ccc(-c2ccc(C=C3CCCc4c[n+](CC)ccc43)s2)s1.[I-] [PB8] showed an MBC [1] of 8 µg/mL, an MIC [1] of 2 µg/mL and an MBC ([1]; value in brackets) of 13.83 µM. The MIC ([1]; value in brackets) was 3.46 µM, the MBC [2] was 4 µg/mL and the MIC [2] was 2 µg/mL. The MBC ([2]; value in brackets) was 6.91 µM, the MIC ([2]; value in brackets) was 3.46 µM and the MBC [3] was 8 µg/mL. The MIC [3] was 2 µg/mL, the MBC ([3]; value in brackets) was 13.83 µM and the MIC ([3]; value in brackets) was 3.46 µM. The MIC [4, 16] was 0.5 mg/L and 0.86 μM, the MIC [4, 17] was 2 mg/L and 3.46 μM and the MIC [4, 18] was 3.46 μM and 2 mg/L. The MIC [4, 19] was 2 mg/L and 3.46 μM, the MIC [4, 20] was 2 mg/L and 3.46 μM and the MIC [4, 21] was 2 mg/L and 3.46 μM. For the same compound, the MIC [4, 22] was 4 mg/L and 6.91 μM, the MBC ([4]; S.aureus ATCC12598-MSSA) was 4 µg/mL and the MIC ([4]; S.aureus ATCC12598-MSSA) was 2 mg/L. The MBC [4, 23] was 6.91 µM, the MIC [4, 23] was 3.46 µM and the MBC ([5]; E. faecalis ATCC51299-VRE) was 4 µg/mL. For the same compound, the MIC ([5]; E. faecalis ATCC51299-VRE) was 4 mg/L, the MBC [5, 24] was 6.91 µM and the MIC [5, 24] was 6.91 µM. The MIC [5, 25] was 0.5 mg/L and 0.86 μM, the MIC [5, 26] was 4 mg/L and 6.91 μM and the MIC [5, 27] was 4 mg/L and 6.91 μM. For the same compound, the MIC [5, 28] was 4 mg/L and 6.91 μM, the MIC [5, 29] was 4 mg/L and 6.91 μM and the MIC [5, 30] was 8 mg/L and 13.83 μM. The MIC [5, 31] was 32 mg/L and 55.30 μM, the MBC [6] was 4 µg/mL and the MIC [6] was 4 µg/mL. For the same compound, the MBC ([6]; value in brackets) was 6.91 µM, the MIC ([6]; value in brackets) was 6.91 µM and the MIC ([7]; A. baumannii ATCC17978) was 128 mg/L. For the same compound, the MIC [7, 32] was 221.22 µM, the MIC [8] was 128 mg/L and the MIC ([8]; value in brackets) was 221.22 µM. For the same compound, the MIC [9] was > 128 µg/mL, the MIC ([9]; value in brackets) was > 221.22 µM and the MIC [10] was > 128 µg/mL. For the same compound, the MIC ([10]; value in brackets) was > 221.22 µM, the MIC [11] was > 128 µg/mL and the MIC ([11]; value in brackets) was > 221.22 µM. For the same compound, the “comparison between MIC and MBC values” [12] was “no significant differences”, the MBC/MIC [13] was ≤ 4 and the IC50 [14] was 5.01 µM and 5 µM.
In the case of COc1cc(/C=C/c2ccc(O)c(O)c2)cc(OC)c1 [[33]-1], the MIC [15] is listed as 128 µg/mL (≈ 470 µM).
